What was measured:
[1] = tested on: MBNL1 exon 5 inclusion in DM1 myotubes; experiment: Myotube splicing rescue assay (MBNL1 exon 5 inclusion); format: cell-based, human; settings: 48-hour incubation
[2] = tested on: r(CUG)12-MBNL1 complex; experiment: Inhibition of the r(CUG)12-MBNL1 complex measured by TR-FRET; format: biochemical; settings: 80 nM RNA, 60 nM MBNL1-His6

Row | Compound | IC50 ([2]; Table M) [µM] | IC50 ([2]; Table L) [µM] | also measured
1 | CN(C)CCCOc1ccc2nc(-c3ccc(-c4nc5ccc(OCCCN(C)C)cc5[nH]4)c(OCCN=[N+]=[N-])c3)[nH]c2c1 [Compound 265, 3,3′-((2,2′-(2-(2-azidoethoxy)-1,4-phenylene)bis(1H-benzo[d]imidazole-6,2-diyl))bis(oxy))bis(N,N-dimethylpropan-1-amine)] | 16.6 | – | MBNL1 % splicing rescue at 10 μM [1]: 84.3%
2 | O=C(NCCN1CCCC1)c1ccc(-c2nc3cc(-c4ccc5[nH]c(-c6ccc(C(=O)NCCN7CCCC7)cc6)nc5c4)ccc3[nH]2)cc1 [Compound 115] | – | 7.1 | MBNL1 % splicing rescue at 10 μM [1]: 57.5%
3 | CC(C)N(CCNC(=O)c1ccc2nc(-c3ccc(-c4nc5ccc(C(=O)NCCN(C(C)C)C(C)C)cc5[nH]4)cc3)[nH]c2c1)C(C)C [Compound 34] | – | 14.5 | MBNL1 % splicing rescue at 1 μM [1]: 20.8%
4 | COc1cc(-c2nc3ccc(OCCCN(C)C)cc3[nH]2)c(OCc2ccccc2)cc1-c1nc2cc(OCCCN(C)C)ccc2[nH]1 [Compound 307, 3-((2-(2-(benzyloxy)-4-(5-(3-(dimethylamino)propoxy)-1H-benzo[d]imidazol-2-yl)-5-methoxyphenyl)-1H-benzo[d]imidazol-6-yl)oxy)-N,N-dimethylpropan-1-amine] | 15.8 | – | MBNL1 % splicing rescue at 10 μM [1]: 18.1%
5 | CN(CC(=O)NCCN1CCN(CCNC(=O)c2ccc3nc(-c4ccc(-c5nc6ccc(C(=O)NCCN7CCCCC7)cc6[nH]5)cc4)[nH]c3c2)CC1)CC(=O)NCCN1CCN(CCNC(=O)c2ccc3nc(-c4ccc(-c5nc6ccc(C(=O)NCCN7CCCCC7)cc6[nH]5)cc4)[nH]c3c2)CC1 [Compound 405] | – | – | MBNL1 % splicing rescue at 10 μM [1]: −2.5%
6 | CN(C)CCNC(=O)c1ccc2nc(-c3ccc4cc(-c5nc6ccc(C(=O)NCCN(C)C)cc6[nH]5)ccc4c3)[nH]c2c1 [Compound 462] | – | – | MBNL1 % splicing rescue at 10 μM [1]: −2.7%
7 | Nc1ccc2[nH]c(-c3ccc(-c4nc5cc(NC6=NCCN6)ccc5[nH]4)cc3)nc2c1 [Compound 24, 2-(4-(5-amino-1H-benzo[d]imidazol-2-yl)phenyl)-N-(4,5-dihydro-1H-imidazol-2-yl)-1H-benzo[d]imidazol-5-amine] | – | 35 | –
8 | C#CCCNC(=O)CCCOc1ccc2[nH]c(-c3ccc(-c4nc5cc(OCCCN(C)C)ccc5[nH]4)cc3)nc2c1 [Compound 321] | 22.4 | – | –
9 | CC(C)(C)OC(=O)N1CCN(CCNC(=O)c2ccc3nc(-c4ccc(-c5nc6ccc(C(=O)NCCN7CCCCC7)cc6[nH]5)cc4)[nH]c3c2)CC1 [Compound 125] | – | 25.6 | –
10 | CN(C)Cc1ccc(Oc2ccc3nc(-c4ccc(-c5nc6ccc(Oc7ccc(CN(C)C)cc7)cc6[nH]5)cc4)[nH]c3c2)cc1 [Compound 242] | 47.7 | – | –
11 | CN(C)CCNC(=O)c1ccc(-c2nc3ccc(-c4ccc5nc(-c6ccc(C(=O)N7CCC(CCCC8CCN(C(=O)c9ccc(-c%10nc%11ccc(-c%12ccc%13nc(-c%14ccc(C(=O)NCCN(C)C)cc%14)[nH]c%13c%12)cc%11[nH]%10)cc9)CC8)CC7)cc6)[nH]c5c4)cc3[nH]2)cc1 [Compound 427] | 3.23 | – | –
12 | CN1CCC[C@H]1COc1ccc2nc(-c3ccc(-c4nc5ccc(O)cc5[nH]4)cc3)[nH]c2c1 [Compound 196] | 106 | – | –
13 | CN(C)CCNC(=O)c1ccc(-c2nc3ccc(-c4ccc5nc(-c6ccc(C(=O)NCCOCCOCCOCCOCc7cn(CCCNCC(=O)N8CCCC8C(=O)N8CCC[C@H]8C(=O)N(CCCn8cc(COCCOCCOCCOCCNC(=O)c9ccc(-c%10nc%11ccc(-c%12ccc%13nc(-c%14ccc(C(=O)NCCN(C)C)cc%14)[nH]c%13c%12)cc%11[nH]%10)cc9)nn8)CC(N)=O)nn7)cc6)[nH]c5c4)cc3[nH]2)cc1 (some centres unmarked) [Compound 438] | > 200 | – | –
14 | CN(C)CCNC(=O)c1ccc(-c2nc3cc(-c4ccc5[nH]c(-c6ccc(C(=O)NCCOCCOCCN=[N+]=[N-])cc6)nc5c4)ccc3[nH]2)cc1 [Compound 398] | 14.7 | – | –
15 | CN(C)CCNC(=O)c1ccc(-c2nc3cc(-c4ccc5[nH]c(-c6ccc(C(=O)NCCCNC(=O)c7ccc(-c8nc9cc(-c%10ccc%11[nH]c(-c%12ccc(C(=O)NCCN(C)C)cc%12)nc%11c%10)ccc9[nH]8)cc7)cc6)nc5c4)ccc3[nH]2)cc1 [Compound 413] | 3.34 | – | –
16 | N#Cc1ccc2nc(-c3ccc(-c4nc5ccc(C#N)cc5[nH]4)cc3)[nH]c2c1 [Compound 9, 2,2′-(1,4-phenylene)bis(1H-benzo[d]imidazole-6-carbonitrile)] | – | 26 | –
17 | c1cc(-c2nc3cc(-c4ccc5[nH]c(-c6ccc(CN7CCCC7)cc6)nc5c4)ccc3[nH]2)ccc1CN1CCCC1 [Compound 127, 2,2′-bis(4-(pyrrolidin-1-ylmethyl)phenyl)-1H,1′H-5,5′-bibenzo[d]imidazole] | – | 27.8 | –

Now from value to compound, other results behind:

Row | IC50 ([2]; Table M) [µM] | IC50 ([2]; Table L) [µM] | Compound | also measured
18 | 6.14 | – | CN(C)CCCOc1ccc2nc(-c3ccc(-c4ccc(-c5nc6ccc(OCCCN(C)C)cc6[nH]5)cc4)cc3)[nH]c2c1 [Compound 170] | MBNL1 % splicing rescue at 1 μM [1]: 24.6%; MBNL1 % splicing rescue at 10 μM [1]: 85.5%
19 | – | 46 | N=C(N)Nc1cccc(-c2nc3cc(-c4ccc5nc(-c6cccc(N)c6)[nH]c5c4)ccc3[nH]2)c1 [Compound 166] | –
20 | – | > 200 | c1cn(-c2ccc(-c3nc4cc(-c5ccc6[nH]c(-c7ccc(-n8ccnc8)cc7)nc6c5)ccc4[nH]3)cc2)cn1 [Compound 107] | –
21 | – | 150 | Nc1ccc2nc(-c3ccc(-c4nc5ccc(Nc6ccccn6)cc5[nH]4)cc3)[nH]c2c1 [Compound 21, 2-(4-(5-amino-1H-benzo[d]imidazol-2-yl)phenyl)-N-(pyridin-2-yl)-1H-benzo[d]imidazol-5-amine] | –
22 | – | > 200 | COC(=O)c1ccc2nc(-c3ccc(-c4nc5ccc(C(=O)OC)cc5[nH]4)cc3)[nH]c2c1 [Compound 10, dimethyl 2,2′-(1,4-phenylene)bis(1H-benzo[d]imidazole-6-carboxylate)] | –
23 | 64.4 | – | CC(=O)NCCN1CCN(CCNC(=O)c2ccc3nc(-c4ccc(-c5nc6ccc(C(=O)NCCN7CCCCC7)cc6[nH]5)cc4)[nH]c3c2)CC1 [Compound 206] | –
24 | 10 | – | CN(C)CCCOc1ccc2nc(-c3ccc(-c4nc5ccc(C(=O)NCCN(C)C)cc5[nH]4)cc3)[nH]c2c1 [Compound 238] | –
25 | – | 169 | c1ccc(Nc2ccc3nc(-c4ccc(-c5nc6ccc(Nc7ccccn7)cc6[nH]5)cc4)[nH]c3c2)nc1 [Compound 22, 2,2′-(1,4-phenylene)bis(N-(pyridin-2-yl)-1H-benzo[d]imidazol-5-amine)] | –
26 | – | > 200 | O=C(NCCN1CCOCC1)c1ccc2nc(-c3ccc(-c4nc5ccc(C(=O)NCCN6CCOCC6)cc5[nH]4)cc3)[nH]c2c1 [Compound 42, 2,2′-(1,4-phenylene)bis(N-(2-morpholinoethyl)-1H-benzo[d]imidazole-6-carboxamide)] | –
27 | – | 4.4 | COC(=O)[C@H](CCCNC(=N)N)NC(=O)c1ccc2nc(-c3ccc(-c4nc5ccc(C(=O)N[C@@H](CCCNC(=N)N)C(=O)OC)cc5[nH]4)cc3)[nH]c2c1 [Compound 39] | –
28 | – | 4.6 | N=C(N)Nc1ccc(-c2nc3cc(-c4ccc5[nH]c(-c6ccc(NC(=N)N)cc6)nc5c4)ccc3[nH]2)cc1 [Compound 96] | –
29 | 61.5 | – | CN(C)CCCOc1ccc2nc(-c3ccc(-c4nc5ccc(OCCCN(C)C)cc5[nH]4)c(N)c3)[nH]c2c1 [Compound 291, 3,3′-(((2-amino-1,4-phenylene)bis(1H-benzo[d]imidazole-2,6-diyl))bis(oxy))bis(N,N-dimethylpropan-1-amine)] | –
